Entries after “also recorded” stand apart in the source; their conditions may differ. Where two headings read alike, the source gives them in different places.
Tests used:
[1] = biological target: insulin receptor β-subunit associated tyrosine kinase activity (Homo sapiens, UniProt P06213); assay: Protein tyrosine kinase (PTK) assay, 32P incorporation into FYF peptide; format: biochemical; settings: for effect of compound alone on 32P incorporation into FYF peptide: basal, absence of insulin
Experimental: Protein tyrosine kinase activity was determined using a modification of the method of N. Konstantopoulos (22).
The reaction was allowed to proceed for 20 minutes at 30° C. before it was terminated by the addition of 12.5 μL of 7.5 M guanidine hydrochloride. An aliquot (10 μL) of the reaction mixture was then spotted onto a Whatman 81 phosphocellulose paper (15 mm×15 mm), washed three times (2 min per wash) in about 50 mL of 30% acetic acid, 0.05% orthophosphoric acid then finally, with one wash in about 200 mL of water. The papers were then rinsed briefly (15 sec) in 95% ethanol, dried, suspended in 2.5 mL of scintillation fluid (Beckman) and counted for radioactivity in a Beckman β-counter.

3T3L1 adipocyte cells = assay: Glucose transport (3H-deoxyglucose uptake) in 3T3L1 adipocyte cells; format: cell-based, mouse; settings: for effect of compound alone on glucose transport: basal, no insulin
Experimental: Glucose transport was determined using a modification of the method of S. J. Isakoff et at. (23). The assay involved measuring the effect of compounds on the uptake of ^3H-deoxyglucose into 3T3L1 adipocyte cells.
The cell line, 3T3-L1, derived from mouse embryo fibroblasts, was grown in 250 mL tissue culture flasks containing 15 mL medium made up of DMEM (Dulbecco's modified Eagle's medium containing glutamine, 2 mM; sodium bicarbonate, 30 mM; penicillin 71.5 mg/litre; streptomycin, 152.5 mg/litre) supplemented with 10% foetal calf serum (FCS), pH 7.4. Cells were maintained in a humidified incubator at 37° C. in a 5% CO2 environment. The medium was changed every 3 days and the cells were split when they were about 70-80% confluent.
3T3-L1 fibroblast cells from one tissue culture flask were suspended in 50 mL of DMEM media containing 10% FCS and 0.5 mL of this suspension were seeded into each well of two 48-well tissue culture plates. The differentiation of the cells was initiated when the fibroblast cells were fully confluent. Routinely, differentiation was induced on cells that had been growing in tissue culture plates for 4-5 days. […] The cells were subsequently maintained with DMEM medium containing 10% FCS.
One day prior to the glucose transport assay, cell medium was replaced with DMEM containing 10% charcoal-treated foetal calf serum (CTFCS). On the day of the assay, the medium was aspirated and each well was washed with 1 mL of 25 mM Hepes, pH 7.4 containing 0.9% NaCl (NaCl-HEPES). […] Ten microlitres of NaCl-HEPES containing 3 mM 2-deoxy-D-glucose and 0.1 μCi 2-deoxy-D-[1-^3H]glucose were then added. Following a 10 min incubation at 37° C., the medium was aspirated off and the wells rapidly washed three times with 1 mL of ice-cold 50 mM phosphate, pH 7.5 containing 150 mM NaCl (PBS) and 10 mM glucose. Two hundred microlitres of 3% Triton X-100 was then added to each well and left to incubate for a minimum of 10 minutes. One hundred microlitres of the solubilised cells was then added to 2.5 mL of liquid scintillation fluid and counted for radioactivity in a Beckman β-counter.

insulin receptor [2] = biological target: T1, insulin receptor (Homo sapiens, UniProt P06213); assay: Assays of insulin action (several biological assays, classification agonist/antagonist)
Target sequence in this assay (P06213 with tags, fused parts or gaps): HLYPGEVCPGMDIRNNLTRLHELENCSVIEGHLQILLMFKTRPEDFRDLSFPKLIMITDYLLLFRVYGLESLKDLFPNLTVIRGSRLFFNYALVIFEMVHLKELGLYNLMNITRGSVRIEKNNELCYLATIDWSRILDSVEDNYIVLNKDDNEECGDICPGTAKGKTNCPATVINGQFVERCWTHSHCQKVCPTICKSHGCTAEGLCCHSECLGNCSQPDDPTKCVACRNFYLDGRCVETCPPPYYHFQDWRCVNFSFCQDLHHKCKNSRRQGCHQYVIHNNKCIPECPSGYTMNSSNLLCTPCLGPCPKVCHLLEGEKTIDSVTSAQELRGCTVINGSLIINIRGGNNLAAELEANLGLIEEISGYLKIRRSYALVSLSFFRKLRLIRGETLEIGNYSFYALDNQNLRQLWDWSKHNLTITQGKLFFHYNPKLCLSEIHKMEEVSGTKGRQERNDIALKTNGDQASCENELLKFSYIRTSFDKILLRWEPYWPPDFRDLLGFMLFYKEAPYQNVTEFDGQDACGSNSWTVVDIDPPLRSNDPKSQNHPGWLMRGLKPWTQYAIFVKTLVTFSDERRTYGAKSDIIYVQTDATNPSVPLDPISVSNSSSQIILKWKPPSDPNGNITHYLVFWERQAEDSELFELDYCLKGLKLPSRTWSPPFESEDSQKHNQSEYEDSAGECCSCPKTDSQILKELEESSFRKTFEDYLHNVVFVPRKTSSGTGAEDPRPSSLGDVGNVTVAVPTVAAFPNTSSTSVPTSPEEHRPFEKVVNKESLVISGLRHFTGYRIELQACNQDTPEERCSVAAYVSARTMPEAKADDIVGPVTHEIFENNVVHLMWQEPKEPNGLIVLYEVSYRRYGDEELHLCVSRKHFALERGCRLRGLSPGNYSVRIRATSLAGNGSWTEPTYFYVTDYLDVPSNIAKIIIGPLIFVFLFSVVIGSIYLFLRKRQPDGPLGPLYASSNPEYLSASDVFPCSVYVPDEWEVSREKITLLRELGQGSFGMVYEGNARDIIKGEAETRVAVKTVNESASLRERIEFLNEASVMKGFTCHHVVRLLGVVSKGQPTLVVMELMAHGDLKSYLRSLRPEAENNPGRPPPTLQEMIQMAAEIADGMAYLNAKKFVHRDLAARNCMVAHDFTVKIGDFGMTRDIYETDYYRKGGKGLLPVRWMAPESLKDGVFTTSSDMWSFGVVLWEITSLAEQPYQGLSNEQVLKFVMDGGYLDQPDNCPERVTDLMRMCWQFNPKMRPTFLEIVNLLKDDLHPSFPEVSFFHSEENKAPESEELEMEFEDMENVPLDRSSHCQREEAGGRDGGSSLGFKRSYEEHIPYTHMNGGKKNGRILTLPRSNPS

[3] = biological target: T2, insulin receptor β-subunit (Homo sapiens, UniProt P06213); assay: Insulin receptor autophosphorylation (32P into 90 kDa band); format: biochemical
T2 construct: expressed in transfected cells
T2 sequence (P06213 28-758): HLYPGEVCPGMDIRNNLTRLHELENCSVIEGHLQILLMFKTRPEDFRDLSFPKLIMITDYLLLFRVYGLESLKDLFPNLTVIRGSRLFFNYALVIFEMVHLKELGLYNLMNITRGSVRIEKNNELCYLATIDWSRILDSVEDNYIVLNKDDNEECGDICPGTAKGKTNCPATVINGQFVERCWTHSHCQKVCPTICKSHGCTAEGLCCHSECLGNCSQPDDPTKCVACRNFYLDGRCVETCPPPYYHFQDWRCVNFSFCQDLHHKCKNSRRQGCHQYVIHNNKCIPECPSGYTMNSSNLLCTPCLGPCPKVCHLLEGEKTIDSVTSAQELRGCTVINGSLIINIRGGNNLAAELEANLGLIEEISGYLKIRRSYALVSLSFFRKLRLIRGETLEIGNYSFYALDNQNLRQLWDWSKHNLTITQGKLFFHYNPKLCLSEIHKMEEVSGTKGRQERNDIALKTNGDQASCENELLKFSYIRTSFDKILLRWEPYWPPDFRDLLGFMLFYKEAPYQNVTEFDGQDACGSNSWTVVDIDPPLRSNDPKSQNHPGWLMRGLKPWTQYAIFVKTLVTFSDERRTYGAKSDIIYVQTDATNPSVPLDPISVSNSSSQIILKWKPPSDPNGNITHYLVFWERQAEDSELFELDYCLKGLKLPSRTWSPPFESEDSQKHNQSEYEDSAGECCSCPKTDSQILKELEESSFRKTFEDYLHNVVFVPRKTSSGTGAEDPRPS
T2 sequence (P06213 763-1382): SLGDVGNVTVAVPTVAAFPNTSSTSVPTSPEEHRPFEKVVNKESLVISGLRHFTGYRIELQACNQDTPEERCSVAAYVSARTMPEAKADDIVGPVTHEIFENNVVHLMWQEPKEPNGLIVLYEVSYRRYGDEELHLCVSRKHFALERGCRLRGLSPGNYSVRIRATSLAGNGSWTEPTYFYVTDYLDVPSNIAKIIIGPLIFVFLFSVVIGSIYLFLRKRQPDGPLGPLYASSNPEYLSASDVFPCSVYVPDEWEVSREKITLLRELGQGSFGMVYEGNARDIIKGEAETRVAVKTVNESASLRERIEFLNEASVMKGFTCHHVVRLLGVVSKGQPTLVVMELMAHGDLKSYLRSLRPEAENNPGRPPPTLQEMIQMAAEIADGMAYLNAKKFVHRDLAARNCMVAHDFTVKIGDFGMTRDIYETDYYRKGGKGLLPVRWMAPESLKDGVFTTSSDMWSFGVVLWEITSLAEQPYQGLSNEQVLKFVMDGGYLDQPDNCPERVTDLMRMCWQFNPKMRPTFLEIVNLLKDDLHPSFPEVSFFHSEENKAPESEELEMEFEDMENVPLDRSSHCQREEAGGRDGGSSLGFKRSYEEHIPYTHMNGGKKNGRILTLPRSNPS
Experimental: After this preincubation, 2.5 μL of 1 mM ATP, 100 mM sodium orthovanadate and 5 μCi of [γ-^32P]ATP were added and incubated at room temperature for 25 minutes. The reaction was terminated by the addition of 1.5 μL of 0.5 M EDTA and 3.5 μL of 1.5 M NaCl. The solution was then either solubilised and resolved by SDS-PAGE or immunoprecipitated using anti-insulin Rβ (29B4) mouse monoclonal IgG or anti-phosphotyrosine (PY20) mouse monoclonal IgG (Santa Cruz Biotechnology Inc., USA), solubilised and then resolved by SDS-PAGE. Immunoprecipitation was performed by incubating one microgram of antibody with the reaction mixture over night at 4° C. […] The receptor-antibody-Sepharose complex was separated from the supernatant by centrifugation at 7,500 g for 5 minutes. The pellet was washed three times in TBS containing 0.1% Triton X-100 and 10 μL of 0.1 M glycine, pH 3.3 was added. The solution was then solubilised by incubation for 5 minutes at 100° C. in 10 μL of 80 mM Tris-HCl, pH 6.8 containing 0.45 M DTT, 56 mM EDTA, 30% sucrose and 6% SDS. Following centrifugation for 5 minutes at 7,500 g, the supernatant was resolved on a 7.5% SDS polyacrylamide gel. […] In some instances, gel bands corresponding to 90 kDa were excised and the associated radioactivity was measured by suspending the gel band in 2.5 mL of Scintillation fluid (Beckman) using a Beckman β-counter.

insulin receptor [4] = biological target: T1, insulin receptor; assay: 125I insulin binding to human placental plasma membranes (HPPM); design: Human Placental Plasma Membranes—50 mM Hepes, pH 7.8 @ 4 C containing 100 U/mL Bacitracin; from tissue; host or cells: human placenta, plasma membranes; settings: human placental plasma membranes, 16 h at 4° C.
Experimental: (§1) Tubes were mixed and incubated for 16 h at 4° C. After the incubation, the tubes were placed on ice and 300 μL of a 1:5 suspension of 0.4% bovine-γ-globulin in 20% polyethyleneglycol 6000 (BDH chemicals) was added to each tube, mixed thoroughly and left to incubate for 30 min on ice. The tubes were then centrifuged (3,000 g) for 30 min at 4° C., the supernatant was aspirated off and the pellet counted for radioactivity. […] Inhibition constants were estimated by graphical analysis of displacement plots or calculated using the curve fitting programs EBDA and/or LIGAND.
Target sequence in this assay (P06213 28-758 limits assumed): as the sequence (P06213 28-758) above

IGF-1 receptor [5] = assay: 125I IGF-1 binding to human placental plasma membranes (HPPM); settings: same source of receptors (HPPM)
IGF-1 receptor [6] = biological target: T3, IGF-1 receptor (Homo sapiens, UniProt P08069); assay: as above; design: from tissue; host or cells: human placenta, plasma membranes; settings: HPPM
T3 sequence (P08069 31-736 limits assumed): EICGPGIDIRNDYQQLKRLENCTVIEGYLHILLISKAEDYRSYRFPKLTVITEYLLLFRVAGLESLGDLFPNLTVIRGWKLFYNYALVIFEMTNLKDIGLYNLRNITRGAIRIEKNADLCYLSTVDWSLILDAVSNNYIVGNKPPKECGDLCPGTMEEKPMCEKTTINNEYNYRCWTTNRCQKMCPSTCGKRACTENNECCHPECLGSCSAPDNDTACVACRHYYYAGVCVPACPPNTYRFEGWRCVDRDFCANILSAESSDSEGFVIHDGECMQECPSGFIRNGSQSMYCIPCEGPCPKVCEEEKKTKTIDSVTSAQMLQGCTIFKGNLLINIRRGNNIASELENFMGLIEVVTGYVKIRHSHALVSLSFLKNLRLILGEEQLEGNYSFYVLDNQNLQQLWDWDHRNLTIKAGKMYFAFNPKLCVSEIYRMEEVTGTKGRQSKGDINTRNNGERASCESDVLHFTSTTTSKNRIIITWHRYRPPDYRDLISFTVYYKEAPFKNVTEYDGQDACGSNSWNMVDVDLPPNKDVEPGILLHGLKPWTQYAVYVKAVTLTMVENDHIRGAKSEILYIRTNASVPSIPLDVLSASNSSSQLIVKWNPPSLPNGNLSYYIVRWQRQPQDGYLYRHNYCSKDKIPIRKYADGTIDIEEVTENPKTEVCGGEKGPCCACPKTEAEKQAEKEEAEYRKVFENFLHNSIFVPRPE

insulin receptor [7] = biological target: T1, insulin receptor; assay: 125I insulin binding to wheat germ agglutinin purified insulin receptors (WGA.IR); design: host or cells: several: placental membranes, CHO.T11 cells, WGA purified receptors; settings: LIGAND 1-site fit
Experimental: as §1
Target sequence in this assay (P06213 28-758 limits assumed): as the sequence (P06213 28-758) above

IGF-1 receptors = biological target: T4, IGF-1 receptors (Cricetulus griseus, UniProt A0A8C2N2R2); assay: 125I IGF-1 binding to WGA purified receptor preparations from CHO wild-type cells
T4 construct: have high endogenous populations of IGF-1 receptors; endogenous in cells; host or cells: CHO wild-type cells, solubilised, WGA purified
T4 sequence (A0A8C2N2R2 31-1371): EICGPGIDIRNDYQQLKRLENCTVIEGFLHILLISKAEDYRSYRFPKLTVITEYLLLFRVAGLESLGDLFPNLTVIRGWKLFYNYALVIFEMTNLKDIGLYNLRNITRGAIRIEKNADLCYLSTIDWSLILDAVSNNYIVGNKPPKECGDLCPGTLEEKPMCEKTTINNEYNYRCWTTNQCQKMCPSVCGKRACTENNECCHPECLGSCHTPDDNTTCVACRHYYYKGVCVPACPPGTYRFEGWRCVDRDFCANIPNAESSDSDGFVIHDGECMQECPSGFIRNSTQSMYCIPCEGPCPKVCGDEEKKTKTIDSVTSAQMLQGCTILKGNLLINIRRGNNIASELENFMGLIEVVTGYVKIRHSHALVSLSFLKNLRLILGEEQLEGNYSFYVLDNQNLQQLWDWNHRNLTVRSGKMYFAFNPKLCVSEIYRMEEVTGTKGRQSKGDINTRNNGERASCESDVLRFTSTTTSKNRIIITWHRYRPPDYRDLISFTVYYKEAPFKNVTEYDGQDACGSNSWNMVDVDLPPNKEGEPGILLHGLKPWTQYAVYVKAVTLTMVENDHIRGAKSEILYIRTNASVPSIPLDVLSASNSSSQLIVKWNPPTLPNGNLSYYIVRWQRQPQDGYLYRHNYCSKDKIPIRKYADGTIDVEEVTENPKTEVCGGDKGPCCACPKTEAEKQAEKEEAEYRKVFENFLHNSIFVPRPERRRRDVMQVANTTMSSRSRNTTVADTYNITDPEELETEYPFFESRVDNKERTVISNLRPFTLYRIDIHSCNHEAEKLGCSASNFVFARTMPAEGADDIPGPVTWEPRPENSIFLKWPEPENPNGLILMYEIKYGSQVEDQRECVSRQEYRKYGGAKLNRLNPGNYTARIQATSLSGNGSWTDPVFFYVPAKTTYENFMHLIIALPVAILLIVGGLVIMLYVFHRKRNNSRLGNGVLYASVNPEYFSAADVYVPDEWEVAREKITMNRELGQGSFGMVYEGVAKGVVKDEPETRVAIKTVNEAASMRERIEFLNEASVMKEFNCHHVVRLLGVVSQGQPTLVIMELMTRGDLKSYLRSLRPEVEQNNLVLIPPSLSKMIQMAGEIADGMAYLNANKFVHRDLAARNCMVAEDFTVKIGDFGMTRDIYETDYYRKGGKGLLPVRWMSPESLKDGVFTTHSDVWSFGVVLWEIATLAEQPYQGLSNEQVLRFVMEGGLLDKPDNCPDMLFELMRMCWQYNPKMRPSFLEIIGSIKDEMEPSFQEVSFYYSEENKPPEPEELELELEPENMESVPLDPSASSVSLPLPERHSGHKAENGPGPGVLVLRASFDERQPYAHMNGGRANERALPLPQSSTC

[8] = tested on: streptozotocin induced diabetic mice; assay: Blood glucose levels in streptozotocin induced diabetic mice; format: in vivo, mouse
Experimental: Six week old male CD-1 mice were injected intra peritoneally with a sterile solution of streptozotocin prepared in 100 mM citrate buffer, pH 4.65 at a dose of 200 mg/kg and an injection volume of 16.7 mL/kg. Mice were housed in a 12 h light/dark cycle and fed a normal chow diet ad libitum. Drinking water was supplemented with 5% sucrose for the first two days following streptozotocin injection before being replaced with tap water thereafter. After 4 days, blood was taken from the saphenous vein of the mice using the method of Hem, A et al. (26). Random non-fasting blood glucose levels were determined on venous blood using an esprit glucometer (Bayer). Mice with blood glucose levels of greater than 15 mmol/L were characterised as diabetic.
Blood glucose levels of mice were determined, followed by an intra peritoneal dose of IM compound dissolved in diluent (1.6% glycerin, 0. 25% m-cresol, pH 6.75). Mice were then bled periodically and whole blood glucose levels were determine using a one-touch esprit glucometer (Bayer).

insulin receptor [9] = biological target: T1, insulin receptor; assay: 125I insulin binding, insulin receptors from a number of sources; design: host or cells: several: placental membranes, CHO.T11 cells, WGA purified receptors
Experimental: as §1
Target sequence in this assay (P06213 28-758 limits assumed): as the sequence (P06213 28-758) above

IGF-1 receptor [10] = biological target: T3, IGF-1 receptor; assay: Phosphorylation of immunoprecipitated IGF-1 receptors; format: biochemical; settings: immunoprecipitated IGF-1 receptors free of insulin receptors
NIH 3T3 HIR3.5 cells = settings: read-out: half maximal insulin concentration for stimulation of 3H-deoxyglucose; cited from earlier work

Chain of insulin receptor β-subunit associated tyrosine kinase activity (P06213 28-758 limits assumed): as the sequence (P06213 28-758) above

With “3,4-dihydro-7-[[6-(4-methoxyphenyl)hexenyl]oxy]-8-propyl-2H-1-benzopyran-2-carboxylic acid [IM 172]” the “effect of compound alone on 32P incorporation into FYF peptide” value [1] was “does not increase ^32P incorporation into FYF peptide”, the Ki ([1]; inhibition of insulin stimulation, read-out: estimated inhibition constant, PTK assay) was 80 µM and the Ki (3T3L1 adipocyte cells; 3T3L1 cells, 2 nM insulin, read-out: estimated inhibition constant (Ki), glucose transport assay) was 80 µM. The “effect of compound alone on glucose transport” value (“effect … on glucose transport” below) (3T3L1 adipocyte cells) was “does not activate glucose transport in 3T3L1 cells”, the “classification of insulin action” value (insulin receptor [2]) was “antagonists of insulin action” and the “effect on 32P incorporation into insulin receptor β-subunit” value ([3]; basal) was “does not increase ^32P incorporation into FYF peptide or the insulin receptor β-subunit”. The Ki (insulin receptor [4]; read-out: apparent Ki (inhibition constant), competition for 125I insulin binding) was 218 µM.

With `CCCc1c(OCCCOc2ccc(C(C)=O)c(OC)c2CCC)ccc2c1OC(C(=O)O)CC2` (stereo not shown) [IM 129, 7-[3-(4-acetyl-3-methoxy-2-propylphenoxy)propoxy]-3,4-dihydro-8-propyl-2H-1-benzopyran-2-carboxylic acid] the “classification of insulin action” value (insulin receptor [2]) was “antagonists of insulin action”, the IC50 (insulin receptor [2]; PTK and glucose transport (FIGS. 8 and 9), read-out: apparent IC50 in several biological assays) was 30 to 200 µM and the “apparent Ki for 125I IGF-1 binding relative to Ki for 125I insulin binding” value (IGF-1 receptor [5]) was “approximately two fold higher”. It also gave a Ki (IGF-1 receptor [6]; read-out: apparent Ki, displacement of 125I IGF-1 binding) of 800 to 1300 µM, a Ki (insulin receptor [7]) of 189 µM and a Ki (insulin receptor [4]) of 320 to 550 µM.

For `CCc1cc(-c2ccc(F)cc2)c(O)cc1OCCCOc1ccc2c(=O)c3cc(C(=O)O)ccc3oc2c1CCC(=O)O` [IM 140, 3-[4-[7-carboxy-9-oxo-3-[3-[2-ethyl-4-(4-fluorophenyl)-5-hydroxyphenoxy]propoxy]-9H-xanthene]]propanoic acid], the “effect of compound alone on 32P incorporation into FYF peptide” value [1] was “promotes the ATP-dependent phosphorylation of endogenous FYF peptide in a dose dependent manner”, the “effect … on glucose transport” value (3T3L1 adipocyte cells) was “activates glucose transport in 3T3L1 cells” and the “efficacy compared with insulin, glucose transport” value (3T3L1 adipocyte cells; compound alone, relative to maximal dose of insulin (100 nM)) was 25-40%. For the same compound, the EC50 (3T3L1 adipocyte cells; compound alone, read-out: apparent EC50, stimulation of glucose transport) was 20 to 30 µM, the EC50 (3T3L1 adipocyte cells; read-out: apparent EC50, glucose transport with sub-maximal insulin, in presence of 2 nM insulin) was 8 µM and the “glucose transport, % of maximal efficacy (100 nM insulin)” value (3T3L1 adipocyte cells; with 2 nM insulin, compound at 15 μM) was 80%. The “classification of insulin action” value (insulin receptor [2]) was “agonists of insulin action”, the “effect on 125I IGF-1 binding” value (IGF-1 receptors) was “does not compete for ^125I IGF-1 binding” and the EC50 in vivo [8] was 15 µmol/kg. For the same compound, the “dose of peak activity, bi-phasic dose response in vivo” value [8] was 20 to 40 µmol/kg, the “effect on blood glucose levels” value ([8]; 100 μmol/kg, preliminary studies) was “does not decrease blood glucose levels” and the “efficacy in lowering blood glucose relative to human insulin” value ([8]; dose of 35 μmol/kg, intra peritoneal) was “about 25%”. The “effect on 125I IGF-1 binding” value (IGF-1 receptor [6]) was “does not compete for ^125I IGF-1 binding to HPPM; also recorded: promotes ^125I IGF-1 binding to HPPM”, the “concentration of maximal 125I insulin binding” value (insulin receptor [9]) was 80 to 100 µM and the EC50 (insulin receptor [9]; read-out: apparent EC50 of increase in 125I insulin binding, low micromolar concentrations) was 10 to 20 µM.

In the case of `Cc1ccc(C(=O)Nc2ccc(S(=O)(=O)O)c3cc(S(=O)(=O)O)cc(S(=O)(=O)O)c23)cc1NC(=O)c1cccc(NC(=O)Nc2cccc(C(=O)Nc3cc(C(=O)Nc4ccc(S(=O)(=O)O)c5cc(S(=O)(=O)O)cc(S(=O)(=O)O)c45)ccc3C)c2)c1` [IM 175, 8,8′-[Carbonylbis[imino-3,1-phenylenecarbonylimino(4-methyl-3,1-phenylene)carbonylimino]]bis-1,3,5-naphthalenetrisulfonic acid], the EC50 (3T3L1 adipocyte cells; Mus musculus, 3T3-L1, compound alone, read-out: apparent EC50, stimulation of glucose transport) is reported as about 250 µM, the “effect … on glucose transport” value (3T3L1 adipocyte cells) is reported as “levels approaching maximal stimulation by insulin” and the “classification of insulin action” value (insulin receptor [2]) is reported as “agonists of insulin action”. The “autophosphorylation of insulin receptor β-subunits, efficacy relative to insulin” value ([3]; relative to 100 nM dose of insulin, immunoprecipitated insulin receptors) was “about 65%”, the “effect on IGF-1 receptor phosphorylation” value (IGF-1 receptor [10]) was “can also stimulate the IGF-1 receptor” and the “effect on IGF-1 receptor phosphorylation” value (IGF-1 receptor [10]; listed as IM175) was “lower potency on IGF-1 receptors than it does on insulin receptors”. It also gave a Ki (IGF-1 receptor [6]; read-out: Ki, competition for 125I IGF-1 binding) of 9 µM and a Ki (insulin receptor [4]) of 46 to 48 µM.

In the case of “insulin: peptidyl ligand; the most important regulatory hormone involved in maintaining glucose homeostasis”, the EC50 (NIH 3T3 HIR3.5 cells) is given as 0.0001 µM.
